Laboratory results: the supplement of paper PMC4121296
± gives the standard deviation of the averaged measurements.

Legend:
Conditions in all cases: exposure: 5-72 hpf
[1] = tested on: Danio rerio embryo (fli1:egfp); experiment: heart rate at 72 hpf (beats per minute); higher = faster heart rate
Protocol: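 fli1:egfp zebrafish embryos exposed 5-72 hpf to chemical (0.05-50 µM, 0.1% DMSO) in 384-well plates; heart rate at 72 hpf quantified from stream acquisitions by semi-automated MetaXpress journal (peak counting); only embryos in concentrations passing survival/body-length criteria analyzed.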

[2] = tested on: Danio rerio embryo (fli1:egfp); experiment: body length at 72 hpf (µm); higher = longer body (less growth inhibition)
Protocol: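 Transgenic fli1:egfp zebrafish embryos (one per well, 384-well plate) exposed statically from 5 to 72 hpf at 28 °C to chemical (0.05-50 µM, 0.1% DMSO); at 72 hpf anesthetized and imaged on ImageXpress; body length of live, hatched, correctly oriented embryos measured by automated MetaXpress journal. Dead/unhatched/misoriented embryos have no value.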

[3] = tested on: Danio rerio embryo (fli1:egfp); experiment: pericardial area at 72 hpf (image area units (not stated)); higher = larger pericardial area (edema)
Protocol: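 fli1:egfp zebrafish embryos exposed 5-72 hpf to chemical (0.05-50 µM, 0.1% DMSO); pericardial area at 72 hpf measured by semi-automated MetaXpress journal (increase indicates edema).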

[4] = tested on: Danio rerio embryo (fli1:egfp); experiment: arterial (dorsal aorta) circulation score at 72 hpf (normalized DA-Max (arbitrary units)); higher = more circulation
Protocol: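 fli1:egfp zebrafish embryos exposed 5-72 hpf to chemical (0.05-50 µM, 0.1% DMSO); arterial circulation at 72 hpf quantified from stream acquisitions of the dorsal aorta by FFT-based analysis (DA-Max, normalized dorsal aorta signal); only concentrations passing survival/body-length criteria analyzed.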

[5] = tested on: Danio rerio embryo (fli1:egfp); experiment: intersegmental vessel area normalized to body length at 72 hpf (ISV area / body length (normalized units)); higher = more vessel area
Protocol: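 fli1:egfp zebrafish embryos exposed 5-72 hpf to chemical (0.05-50 µM, 0.1% DMSO); intersegmental vessel (ISV) eGFP area quantified by MetaXpress journal at 72 hpf and normalized to body length.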

C=C(C)[C@H]1Cc2c(ccc3c2O[C@@H]2COc4cc(OC)c(OC)cc4[C@@H]2C3=O)O1 [Rotenone]
0.05 µM
Conditions	arterial	body length at 72 hpf	heart rate at 72 hpf	intersegmental vessel area normalized	pericardial area at 72 hpf
[1]	–	–	141 ± 28	–	–
[2]	–	3020 ± 150	–	–	–
[3]	–	–	–	–	18800 ± 9900
[4]	8.64 ± 4.7	–	–	–	–
[5]	–	–	–	85.6 ± 18	–

CC(C)Oc1cc(-n2nc(C(C)(C)C)oc2=O)c(Cl)cc1Cl [Oxadiazon]
Conditions	arterial, [4]	body length at 72 hpf, [2]	heart rate at 72 hpf, [1]	intersegmental vessel area normalized, [5]	pericardial area at 72 hpf, [3]
0.05 µM	14.6 ± 4.2	3090 ± 97	179 ± 12	85.1 ± 22	14800 ± 3700
0.098 µM	14 ± 5.9	3060 ± 110	184 ± 26	88.1 ± 20	13700 ± 4000
0.195 µM	13.8 ± 4.9	3090 ± 84	190 ± 13	90.3 ± 20	15400 ± 4000
0.39 µM	14.5 ± 6	3060 ± 87	186 ± 18	82.3 ± 20	15400 ± 3500
0.78 µM	13.1 ± 3.4	3040 ± 95	182 ± 11	82.4 ± 20	16500 ± 5400
1.56 µM	15.4 ± 4.7	2950 ± 220	183 ± 11	83.4 ± 25	14900 ± 4900
3.125 µM	13.2 ± 4.7	3060 ± 83	188 ± 13	85.6 ± 24	15800 ± 3600
6.25 µM	14.1 ± 6	3120 ± 77	190 ± 10	90.4 ± 26	16000 ± 2900
12.5 µM	11.5 ± 3.2	3000 ± 120	181 ± 12	94.5 ± 18	17300 ± 5400
25 µM	9.56 ± 4.9	2960 ± 110	155 ± 19	90.2 ± 17	16800 ± 5000

CCOC(=O)C(C)OC(=O)c1cc(Oc2ccc(C(F)(F)F)cc2Cl)ccc1[N+](=O)[O-] (stereo not drawn) [Lactofen]
Conditions	arterial, [4]	body length at 72 hpf, [2]	heart rate at 72 hpf, [1]	intersegmental vessel area normalized, [5]	pericardial area at 72 hpf, [3]
0.05 µM	8.21 ± 2.9	3000 ± 200	189 ± 13	84.8 ± 18	13400 ± 4500
0.098 µM	7.39 ± 2.9	3000 ± 76	187 ± 15	87.9 ± 14	17300 ± 4400
0.195 µM	8.26 ± 3.4	2990 ± 150	191 ± 14	81.5 ± 23	15800 ± 5200
0.39 µM	8.42 ± 2.9	2940 ± 140	188 ± 14	83.3 ± 24	15800 ± 4700
0.78 µM	5.92 ± 2.7	2950 ± 140	191 ± 15	82.4 ± 19	19300 ± 9600
1.56 µM	6.43 ± 2.5	2980 ± 160	193 ± 15	85.2 ± 18	19800 ± 11000
3.125 µM	5.46 ± 2.5	2960 ± 160	190 ± 20	88 ± 20	21500 ± 7200
6.25 µM	4.85 ± 1.7	2910 ± 140	188 ± 13	92.9 ± 12	21200 ± 5700
12.5 µM	4.13 ± 1.4	2910 ± 130	187 ± 25	99.7 ± 7.6	23900 ± 11000

CC(C)[C@H](C(=O)O[C@H](C#N)c1cccc(Oc2ccccc2)c1)c1ccc(Cl)cc1 [Esfenvalerate]
Conditions	arterial, [4]	body length at 72 hpf, [2]	heart rate at 72 hpf, [1]	intersegmental vessel area normalized, [5]	pericardial area at 72 hpf, [3]
0.05 µM	9.88 ± 3.5	3070 ± 250	184 ± 14	72.5 ± 19	14800 ± 4500
0.098 µM	10.8 ± 4.3	3140 ± 130	182 ± 14	76.8 ± 21	16600 ± 6700
0.195 µM	10.1 ± 2.8	3150 ± 110	196 ± 21	76.2 ± 23	14700 ± 4000
0.39 µM	10.9 ± 3.4	3090 ± 110	198 ± 16	76.1 ± 17	15300 ± 3100
0.78 µM	10.1 ± 3.2	3140 ± 120	195 ± 17	75.7 ± 19	15800 ± 4300
1.56 µM	10.3 ± 2.5	3160 ± 160	194 ± 12	63.9 ± 21	15900 ± 6200
3.125 µM	13.2 ± 6.4	2970 ± 130	188 ± 13	88.9 ± 12	14100 ± 2900
6.25 µM	11.9 ± 4.5	2830 ± 160	188 ± 18	88.2 ± 14	14600 ± 5800
12.5 µM	–	2760 ± 110	–	–	–
25 µM	–	2640 ± 250	–	–	–
50 µM	–	2750 ± 170	–	–	–

COC(=O)N(C(=O)N1CO[C@@]2(C(=O)OC)Cc3cc(Cl)ccc3C2=N1)c1ccc(OC(F)(F)F)cc1 [Indoxacarb]
Conditions	arterial, [4]	body length at 72 hpf, [2]	heart rate at 72 hpf, [1]	intersegmental vessel area normalized, [5]	pericardial area at 72 hpf, [3]
0.05 µM	9.56 ± 3.7	2980 ± 100	169 ± 13	81.5 ± 21	14200 ± 4600
0.098 µM	10.3 ± 4.1	3010 ± 100	171 ± 14	81.7 ± 22	13400 ± 4900
0.195 µM	10.5 ± 3.5	2970 ± 110	176 ± 28	85.7 ± 21	15600 ± 5700
0.39 µM	8.96 ± 3.8	2950 ± 150	183 ± 13	80.7 ± 28	13200 ± 3200
0.78 µM	8.19 ± 3	2990 ± 66	185 ± 18	80.1 ± 22	14100 ± 2700
1.56 µM	10.8 ± 4	2960 ± 88	181 ± 14	85.1 ± 16	12300 ± 4900
3.125 µM	9.26 ± 3.4	3010 ± 52	194 ± 13	83.8 ± 23	12700 ± 2900
6.25 µM	10.5 ± 4.7	3020 ± 77	188 ± 20	87.7 ± 16	13000 ± 3000
12.5 µM	14.1 ± 7.6	2900 ± 73	181 ± 33	70.6 ± 17	14200 ± 3300
